Test results from PMC6657216, “Defining the Contribution of CYP1A1 and CYP1A2 to Drug Metabolism Using Humanized CYP1A1/1A2 and Cyp1a1/Cyp1a2 Knockout Mice” (Drug Metabolism and Disposition, 2019).
“And” between values parts separate entries of the source, which are not always exact repeats. Equal values may be shown once. Read-outs that look alike come from different tables or passages of the source. Marks after values point to notes of the source that are not given here.

How the values were obtained:
[1] = cited from earlier work
[2] = Caffeine systemic clearance from published mouse studies; format: in vivo
CYP1A2 = tested on: CYP1A2; set-up: method as in Culm-Merdek et al., 2005; conditions: healthy subjects; interaction with fluvoxamine; ref Culm-Merdek et al., 2005; cited from earlier work
[3] = for CYP1A2 Contribution: 5 mg/kg PO, This study; for AUCinf(obs) (% mean of C57BL/6J ± %S.D.) / CL/F(obs) (% mean of C57BL/6J ± %S.D.) / Cmax (% mean of C57BL/6J ± %S.D.) / V/F(obs) (% mean of C57BL/6J ± %S.D.) / V/F(obs): 5 mg/kg oral; for V/F(obs): mean ± S.D., n = 4
Protocol: (§2) A separate experimental group consisted of mice with conditionally deleted hepatic P450 oxidoreductase ([Henderson et al., 2003]) [hepatic reductase null (HRN) mice]. Whole blood samples from WT and hCYP1A1/1A2 mice were collected at 12, 24, and 40 minutes and 1, 2, 3, 4, 6, and 8 hours after the administration. Whole blood samples from HRN and Cyp1a1/1a2 KO mice were collected at 12, 24, and 40 minutes and 1, 3, 6, 8, 12, and 24 hours postadministration. The collected whole blood samples (10 μl) were mixed with an equal volume of heparin solution in water (15 U/ml), frozen in liquid nitrogen, and stored at −70°C. […] The supernatant was collected, and the centrifugation step was repeated.
(§3) Pharmacokinetic parameters were calculated using Phoenix WinNonlin version 6.4 (Certara, St. Louis, MO).

in vivo = conditions: whole blood, po, 5 mg/kg
Protocol: as §2, §3

[4] = Microsomal stability in pooled human liver microsomes
Protocol: (§1) The reaction was started by addition of 200 μl of NADPH to the remaining mixture of ramelteon with microsomes, and 100-μl aliquots were taken at 1, 2, 5, 10, 15, 20, and 30 minutes after the reaction start; mixed with an equal volume of ice-cold methanol containing the internal standard; incubated on ice for at least 20 minutes; and centrifuged for 15 minutes at 16,000 rcf and +4°C on Centrifuge 5415 R (Eppendorf, Hamburg, Germany). Control incubations were carried out without the cofactor or microsomes. The concentration of ramelteon in the supernatant was measured by high-performance liquid chromatography–tandem mass spectrometry (MS/MS). Chromatographic separation was performed on a Prodigy Phenyl-3 column (5 μm, 50 × 2.0 mm; Phenomenex) using an injection volume of 10 μl and a run time of 7 minutes. Mobile phase consisted of 0.1% solutions of formic acid in water (solvent A) and acetonitrile (solvent B). For elution, a linear gradient from 20% to 60% of solvent B in 4 minutes was used, followed by 3-minute equilibration at 20% B. The multiple reaction monitoring parameters for ramelteon and tacrine were 260.28, 199.2 (precursor ion) and 204.21, 171.11 (product ion), respectively. The concentrations of ramelteon were calculated from the calibration curve.

[5] = Microsomal stability in mouse liver microsomes (WT, Cyp1a KO, hCYP1A1/1A2)
Protocol: as §1

[6] = HRN (hepatic reductase null), mouse

Cn1c(=O)c2c(ncn2C)n(C)c1=O [caffeine]
Clearance ([1]; C57BL/6J mice, 5 mg/kg PO, calculated from the mean pharmacokinetic profile in Fig. 2 of the publication, ref Li et al., 2017): 472^a ml/(h*kg)
Clearance ([1]; C57BL/6J mice, 5 mg/kg PO, ref Scheer et al., 2014): 726 mL/h/kg
Clearance ([1]; C57BL/6N mice, 2 mg/kg i.p., ref Buters et al., 1996): 2268 mL/h/kg
Clearance ([1]; CD-1 mice, 20 mg/kg i.p., ref Kaplan et al., 1990): 640 mL/h/kg
Clearance ([1]; CD-1 mice, 40 mg/kg i.p., ref Kaplan et al., 1990): 380 mL/h/kg
Clearance ([1]; CD-COBS mice, 1 mg/kg i.v., ref Walton et al., 2001): 732 mL/h/kg
Clearance ([1]; Swiss mice, 20 mg/kg PO, calculated by dividing dose by AUCinf, ref Samojlik et al., 2016): 311^b ml/(h*kg)
Clearance ([1]; Swiss mice, 20 mg/kg i.p., calculated by dividing dose by AUCinf, ref Samojlik et al., 2016): 398^b ml/(h*kg)
CYP1A2 Contribution ([2]; C57BL/6J mice, 5 mg/kg PO, against Cyp1a KO clearance, clearance from ref Li et al., 2017): 39%
CYP1A2 Contribution ([2]; C57BL/6J mice, 5 mg/kg PO, against Cyp1a KO clearance, clearance from ref Scheer et al., 2014): 61%
CYP1A2 Contribution ([2]; C57BL/6N mice, 2 mg/kg i.p., calculated against CYP1A2^−/− clearance, clearance from ref Buters et al., 1996): 88%
CYP1A2 Contribution ([2]; CD-1 mice, 20 mg/kg i.p., against Cyp1a KO clearance, clearance from ref Kaplan et al., 1990): 55%
CYP1A2 Contribution ([2]; CD-1 mice, 40 mg/kg i.p., against Cyp1a KO clearance, clearance from ref Kaplan et al., 1990): 25%
CYP1A2 Contribution ([2]; CD-COBS mice, 1 mg/kg i.v., against Cyp1a KO clearance, clearance from ref Walton et al., 2001): 61%
CYP1A2 Contribution ([2]; CYP1A2^−/− mice, 2 mg/kg i.p., clearance from ref Buters et al., 1996): 0%
CYP1A2 Contribution ([2]; Swiss mice, 20 mg/kg PO, against Cyp1a KO clearance, clearance from ref Samojlik et al., 2016): 8%
CYP1A2 Contribution ([2]; Swiss mice, 20 mg/kg i.p., against Cyp1a KO clearance, clearance from ref Samojlik et al., 2016): 28%
contribution of CYP1A2 to caffeine metabolism (CYP1A2): 93%
CYP1A2 Contribution ([3]; C57BL/6J (WT) mice, against Cyp1a KO clearance): 68%
AUCinf(obs) (% mean of C57BL/6J ± %S.D.) ([3]; C57BL/6J mice): 100 ± 22%
CL/F(obs) (% mean of C57BL/6J ± %S.D.) ([3]; C57BL/6J mice): 100 ± 19%
Cmax (% mean of C57BL/6J ± %S.D.) ([3]; C57BL/6J mice): 100 ± 26%
V/F(obs) (% mean of C57BL/6J ± %S.D.) ([3]; C57BL/6J mice): 100 ± 39%
V/F(obs) ([3]; C57BL/6J mice): 1253 ± 494 mL/kg
increase of AUC compared with WT mice ([3]; Cyp1a KO mice): ~3.1 fold
increase of elimination half-life compared with WT ([3]; Cyp1a KO mice): ~2.5 fold
CYP1A2 Contribution ([3]; Cyp1a KO mice): 0%
AUCinf(obs) (% mean of C57BL/6J ± %S.D.) ([3]; Cyp1a KO mice): 309 ± 36%
Cmax (% mean of C57BL/6J ± %S.D.) ([3]; Cyp1a KO mice): 167 ± 20%
V/F(obs) (% mean of C57BL/6J ± %S.D.) ([3]; Cyp1a KO mice): 79 ± 15%
CL/F(obs) (% mean of C57BL/6J ± %S.D.) ([3]; Cyp1a KO mice, 5 mg/kg): 32% and 32 ± 4%
V/F(obs) ([3]; Cyp1a KO mice): 992 ± 188 mL/kg
increase of AUC compared with WT mice ([3]; HRN mice): ~10 fold
increase of elimination half-life compared with WT ([3]; HRN mice): ~8.9 fold
AUCinf(obs) (% mean of C57BL/6J ± %S.D.) ([3]; HRN mice): 1004 ± 45%
Cmax (% mean of C57BL/6J ± %S.D.) ([3]; HRN mice): 157 ± 33%
V/F(obs) (% mean of C57BL/6J ± %S.D.) ([3]; HRN mice): 84 ± 7%
CL/F(obs) (% mean of C57BL/6J ± %S.D.) ([3]; HRN mice, 5 mg/kg): 9.7 ± 0.42%
V/F(obs) ([3]; HRN mice): 1057 ± 82 mL/kg
increase of AUC compared with WT mice ([3]; hCYP1A1/1A2 mice): ~1.5 fold
CYP1A2 Contribution ([3]; hCYP1A1/1A2 mice, against Cyp1a KO clearance): 53%
AUCinf(obs) (% mean of C57BL/6J ± %S.D.) ([3]; hCYP1A1/1A2 mice): 147 ± 32%
Cmax (% mean of C57BL/6J ± %S.D.) ([3]; hCYP1A1/1A2 mice): 129 ± 8%
V/F(obs) (% mean of C57BL/6J ± %S.D.) ([3]; hCYP1A1/1A2 mice): 89 ± 4%
CL/F(obs) (% mean of C57BL/6J ± %S.D.) ([3]; hCYP1A1/1A2 mice, 5 mg/kg): 68% and 68 ± 13%
V/F(obs) ([3]; hCYP1A1/1A2 mice): 1111 ± 55 mL/kg
increase of elimination half-life compared with WT ([3]; hCYP1A1/1A2 mice, not statistically significant): ~1.4 fold
AUC(0-inf) (in vivo; C57BL/6J, mouse): 5700 ± 1260 ng·h/mL
CL/F (in vivo; C57BL/6J, mouse): 15.1 mL/min/kg
Cmax (in vivo; C57BL/6J, mouse): 2380 ± 628 ng/mL
half-life (in vivo; C57BL/6J, mouse): 56.4 ± 15 min
AUC(0-inf) (in vivo; Cyp1a KO, mouse): 17700 ± 2070 ng·h/mL
CL/F (in vivo; Cyp1a KO, mouse): 4.77 mL/min/kg
Cmax (in vivo; Cyp1a KO, mouse): 3990 ± 472 ng/mL
half-life (in vivo; Cyp1a KO, mouse): 143 ± 12 min
AUC(0-inf) (in vivo; [6]): 57300 ng·h/mL
CL/F (in vivo; [6]): 1.45 mL/min/kg
Cmax (in vivo; [6]): 3740 ± 794 ng/mL
half-life (in vivo; [6]): 504 ± 48 min
AUC(0-inf) (in vivo; hCYP1A1/1A2, mouse): 8400 ± 1800 ng·h/mL
CL/F (in vivo; hCYP1A1/1A2, mouse): 10.2 mL/min/kg
Cmax (in vivo; hCYP1A1/1A2, mouse): 3080 ± 194 ng/mL
half-life (in vivo; hCYP1A1/1A2, mouse): 78 ± 19.8 min

CCC(=O)NCC[C@@H]1CCc2ccc3c(c21)CCO3 [ramelteon]
in vitro clearance relative to WT [4]: ~70%
in vitro clearance relative to WT ([5]; Cyp1a KO mouse liver microsomes): ~83%
contribution of mouse Cyp1a2 to clearance ([5]; WT liver microsomes): 17%
fraction metabolized by Cyp1a2 ([5]; WT mice liver microsomes, eqs. 15 and 16): ~0.17
fraction metabolized by CYP1A2 ([5]; hCYP1A1/1A2 mice liver microsomes, eqs. 15 and 16): 0.56
in vitro clearance relative to WT ([5]; hCYP1A1/1A2 mouse liver microsomes): ~190%
contribution of CYP1A2 to clearance ([5]; liver microsomes of hCYP1A1/1A2 mice): 56%
